One test concerns the target T1, human MT2 receptor (Homo sapiens, UniProt P49286).
T1 construct: expressed in transfected cells
T1 sequence (P49286 1-362): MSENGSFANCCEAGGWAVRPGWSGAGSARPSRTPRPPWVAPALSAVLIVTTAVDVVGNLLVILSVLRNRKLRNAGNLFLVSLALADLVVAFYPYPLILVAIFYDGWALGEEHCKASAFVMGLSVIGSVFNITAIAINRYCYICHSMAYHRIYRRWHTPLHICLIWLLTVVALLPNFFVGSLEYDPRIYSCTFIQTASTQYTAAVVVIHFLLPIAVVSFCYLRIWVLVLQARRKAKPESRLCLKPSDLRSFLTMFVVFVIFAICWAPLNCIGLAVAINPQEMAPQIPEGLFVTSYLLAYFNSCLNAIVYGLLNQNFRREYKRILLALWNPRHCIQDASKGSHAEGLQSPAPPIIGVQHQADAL
The test is described as follows: Activation of human MT2 receptor in receptor-expressing cells, intracellular Ca2+ by FLIPR. Particulars: for EC50: HEK293 cells stably expressing human MT2 and Gq/i chimeric G protein, Ca2+ FLIPR; for Emax: maximum reaction by ramelteon taken as 100%. The format is cell-based.

The next test has as its target T2, human MT1 receptor (Homo sapiens, UniProt P48039).
T2 construct: expressed in transfected cells
The test is described as follows: Activation of human MT1 receptor in receptor-expressing cells, intracellular Ca2+ by FLIPR. Particulars: for EC50: HEK293EBNA1 cells stably expressing human MT1 and Gq/i chimeric G protein, Ca2+ FLIPR; for Emax: maximum reaction by ramelteon taken as 100%. The format is cell-based.

SMILES strings stand for the structures.

T2 sequence (P48039 whole entry): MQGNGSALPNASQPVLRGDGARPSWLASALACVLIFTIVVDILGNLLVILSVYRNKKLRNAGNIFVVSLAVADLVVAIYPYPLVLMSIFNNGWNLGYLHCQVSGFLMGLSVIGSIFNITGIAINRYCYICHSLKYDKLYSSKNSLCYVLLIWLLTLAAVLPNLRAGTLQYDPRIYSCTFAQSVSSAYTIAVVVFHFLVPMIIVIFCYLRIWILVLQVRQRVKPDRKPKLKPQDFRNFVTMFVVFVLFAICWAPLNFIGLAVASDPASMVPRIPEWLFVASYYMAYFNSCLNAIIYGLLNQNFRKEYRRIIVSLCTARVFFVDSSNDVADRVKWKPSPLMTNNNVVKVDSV

On human MT2 receptor, `CC(=O)NCCc1c[nH]c2ccc(OCCOc3ccnc(C)c3)cc12` [Example 59] had an EC50 of 9.6 nM and a maximum response (Emax) of 99%. At human MT1 receptor, this compound showed a concentration for a half-maximal effect (EC50) of 6.6 nM and an Emax of 120%.

On to `CCC(=O)NCCc1c[nH]c2cc(F)c(OCCOc3ccn(C)n3)cc12` [Example 43], for which the EC50 turned out to be 7.1 nM at human MT2 receptor and 5.3 nM at human MT1 receptor. Also, the Emax at human MT2 receptor is 104%; on human MT1 receptor it was 110%.

Regarding `COc1ncc(OCCOc2cc3c(CCNC(C)=O)c[nH]c3cc2F)cc1F` [Example 33], on human MT2 receptor, the EC50 came out at 60 nM and the Emax worked out at 53%. On human MT1 receptor, the response was half-maximal at 4.3 nM (EC50) and the Emax amounted to 103%.

On human MT2 receptor, `CC(=O)NCCc1c[nH]c2ccc(OCCOc3cncc(Cl)c3)cc12` [Example 55] came in with an EC50 of 9.1 nM and an Emax of 133%. On human MT1 receptor, this compound returned an EC50 of 8 nM and an Emax of 109%.

For `CC(=O)NCCc1c[nH]c2ccc(OCCOc3cncc(F)c3)cc12` [Example 57], the values for the EC50 on human MT2 receptor and on human MT1 receptor were 13 nM and 12 nM, respectively. Moreover, the Emax is 114% on human MT2 receptor and 94% at human MT1 receptor.

At human MT2 receptor, `CNC(=O)NCCc1c(C)[nH]c2ccc(OCCn3ccc(C)n3)cc12` [Example 30] returned an EC50 of 15 nM and an Emax of 110%. For the same compound, at human MT1 receptor, the EC50 came out at 4.8 nM and the Emax worked out at 106%.

On human MT2 receptor, `COC(=O)NCCOc1cc2c(CCNC(C)=O)c(C)[nH]c2cc1F` [Example 19] returned an EC50 of 17 nM and an Emax of 91%. Moreover, at human MT1 receptor, it took 5.7 nM to reach a half-maximal effect (EC50) and the Emax came out at 94%.

At human MT2 receptor, `CC(=O)NCCc1c[nH]c2cc(F)c(OCCc3csc(C)n3)cc12` [Example 25] came in with an EC50 of 2.9 nM and an Emax of 96%. For the same compound, on human MT1 receptor, the EC50 came to 1.5 nM and the Emax was determined as 105%.

As for `CC(=O)NCCc1c[nH]c2ccc(OCCOc3nccc(C(F)(F)F)n3)cc12` [Example 62], on human MT2 receptor, the response was half-maximal at 16 nM (EC50) and the Emax was 118%. For the same compound, on human MT1 receptor, the EC50 stood at 11 nM and the Emax stood at 101%.

For `CNC(=O)NCCc1c[nH]c2ccc(OCCOc3cncc(Cl)c3)cc12` [Example 56], on human MT2 receptor, a half-maximal effect (EC50) was put at 9.9 nM and the Emax was determined as 125%. For the same compound, at human MT1 receptor, the EC50 was 15 nM and the Emax is 92%.

At human MT2 receptor, `COC(=O)NCCOc1ccc2[nH]c(C)c(CCNC(C)=O)c2c1` [Example 17] showed an EC50 of 33 nM and an Emax of 91%. Also, at human MT1 receptor, it took 5.9 nM to reach a half-maximal effect (EC50) and the Emax came out at 84%.

Regarding `CC(=O)NCCc1c[nH]c2ccc(OCCOc3cncc(Br)c3)cc12` [Example 49], on human MT2 receptor, the EC50 was 11 nM and the Emax amounted to 119%. Further, at human MT1 receptor, it took 5.6 nM to reach a half-maximal effect (EC50) and the Emax was determined as 102%.

`CNC(=O)NCCc1c[nH]c2cc(F)c(OCCc3csc(C)n3)cc12` [Example 26]: the EC50 at human MT2 receptor turned out to be 9.8 nM; at human MT1 receptor, 8.8 nM. Moreover, the results for the Emax at human MT2 receptor and at human MT1 receptor were 106% and 97%, respectively.

For the compound `COc1ccc(OCCOc2cc3c(CCNC(C)=O)c[nH]c3cc2F)cn1` [Example 28], on human MT2 receptor, a half-maximal response (EC50) required 35 nM and the Emax came out at 62%. On human MT1 receptor, this compound came in with a concentration giving a half-maximal response (EC50) of 6.8 nM and a maximal response (Emax) of 119%.

For `CC(=O)NCCc1c[nH]c2ccc(OCCOc3ccn(C)n3)cc12` [Example 2, N-[2-(5-{2-[(1-methyl-1H-pyrazol-3-yl)oxy]ethoxy}-1H-indol-3-yl)ethyl]acetamide], at human MT2 receptor, the EC50 is 17 nM and the Emax was 125%. At human MT1 receptor, the EC50 stood at 7 nM and the Emax is 125%.

On to `COc1ccc(OCCOc2cc3c([C@@H](C)CNC(C)=O)c[nH]c3cc2F)cn1` [Example 40], for which, at human MT2 receptor, the EC50 amounted to 160 nM and the Emax is 42%. On human MT1 receptor, this compound showed an EC50 of 6.3 nM and an Emax of 81%.

Turning to `CCCC(=O)NCCc1c[nH]c2ccc(OCCOc3ccn(C)n3)cc12` [Example 41], on human MT2 receptor, a half-maximal response (EC50) required 26 nM and the Emax was found to be 93%. On human MT1 receptor, this compound gave an EC50 of 11 nM and an Emax of 75%.

For `Cn1ccc(OCCOc2cc3c(CCNC(=O)C(F)F)c[nH]c3cc2F)n1` [Example 44], the results for the EC50 at human MT2 receptor and at human MT1 receptor were 4.5 nM and 3.3 nM, respectively. The values for the Emax at human MT2 receptor and on human MT1 receptor were 102% and 103%, respectively.

In the case of `CCC(=O)NCCc1c(C)[nH]c2cc(F)c(OCCOc3ccn(C)n3)cc12` [Example 45], at human MT2 receptor, the EC50 is 14 nM and the Emax came to 127%. At human MT1 receptor, this compound came in with an EC50 of 2.3 nM and an Emax of 99%.

Take `COc1ncc(OCCOc2ccc3[nH]cc(CCNC(C)=O)c3c2)cc1F` [Example 32]: at human MT2 receptor, the concentration for a half-maximal effect (EC50) was determined as 50 nM and the Emax was found to be 66%. On human MT1 receptor, this compound had an EC50 of 3.4 nM and an Emax of 96%.

Regarding `CC(=O)NCCc1c[nH]c2cc(F)c(OCCn3cc(Cl)cn3)cc12` [Example 24], on human MT2 receptor, the midpoint of the response, the EC50, lay at 18 nM and the Emax was found to be 71%. At human MT1 receptor, the EC50 is 13 nM and the Emax was determined as 99%.

As for `CC(=O)NCC(C)(C)c1c[nH]c2cc(F)c(OCCOc3ccn(C)n3)cc12` [Example 35], the half-maximal effective concentration (EC50) at human MT2 receptor is 8.3 nM; on human MT1 receptor it was 3.7 nM. Besides, the Emax at human MT2 receptor was 114%; at human MT1 receptor it was 94%.

On to `CNC(=O)NCCc1c[nH]c2ccc(OCCOc3ccnc(Cl)c3)cc12` [Example 52], for which the figures for the EC50 on human MT2 receptor and at human MT1 receptor were 5.6 nM and 10 nM, respectively. The Emax on human MT2 receptor was found to be 117%; at human MT1 receptor, 92%.

Take `CC(=O)NCCc1c[nH]c2ccc(OCCOc3ccccn3)cc12` [Example 64]: the EC50 amounted to 2.1 nM at human MT2 receptor and 1.6 nM at human MT1 receptor. For the same compound, the Emax at human MT2 receptor stood at 116%; on human MT1 receptor, 102%.

Take `CCCc1cccc(OCCOc2ccc3[nH]cc(CCNC(C)=O)c3c2)n1` [Example 61]: at human MT2 receptor, the EC50 was determined as 5.4 nM and the maximal response (Emax) amounted to 92%. Also, on human MT1 receptor, the EC50 amounted to 6.9 nM and the Emax amounted to 84%.

On human MT2 receptor, `CC(=O)NCCc1c[nH]c2ccc(OCCc3csc(C)n3)cc12` [Example 20] had an EC50 of 7.7 nM and an Emax of 119%. On human MT1 receptor, this compound displayed an EC50 of 4.1 nM and an Emax of 115%.

On human MT2 receptor, `CNC(=O)NCCc1c[nH]c2ccc(OCCOc3cccc(OC)n3)cc12` [Example 53] registered an EC50 of 4.8 nM and an Emax of 99%. Besides, on human MT1 receptor, the EC50 came out at 1 nM and the Emax came out at 112%.

Turning to `CC(=O)NCC(C)(C)c1c[nH]c2cc(F)c(OCCn3ccc(C)n3)cc12` [Example 36], at human MT2 receptor, the midpoint of the response, the EC50, lay at 15 nM and the maximum response (Emax) is 96%. At human MT1 receptor, this compound came in with an EC50 of 6 nM and an Emax of 101%.

`CCc1ccn(CCOc2cc3c(CCNC(C)=O)c[nH]c3cc2F)n1` [Example 27]: on human MT2 receptor, the EC50 worked out at 10 nM and the Emax is 82%. At human MT1 receptor, the EC50 is 8.7 nM and the Emax was 83%.

As for `COc1ccc(OCCOc2cc3c(CCNC(C)=O)c(C)[nH]c3cc2F)cn1` [Example 16], the results for the EC50 at human MT2 receptor and at human MT1 receptor were 100 nM and 10 nM, respectively. In addition, the Emax on human MT2 receptor came to 82%; on human MT1 receptor it was 100%.

On human MT2 receptor, `CC(=O)NCC(C)c1c[nH]c2ccc(OCCOc3ccn(C)n3)cc12` (stereo not shown) [Example 34] gave an EC50 of 10 nM and an Emax of 125%. At human MT1 receptor, the concentration giving a half-maximal response (EC50) was 4.3 nM and the Emax was found to be 93%.

The values are drawn from patent US9637451B2, “Indole compound” (ASTELLAS PHARMA INC., priority 2014, dated 2017).
